Numbered stars: 1 amine (or outer) side, 2 acyl side, 3 side chain; on linkers, the order of the positions; unused ones are H or OH. Bridge positions count the residues as written; N and C are the ends. Square brackets hold non-standard residues; d marks the D form. Peptide text beside a SMILES is read from it. I, II: the chains in the order shown. Actinocin(9to1) = Cc1c2oc3c(C)ccc(C(=O)[*:1])c3nc-2c(C(=O)[*:2])c(N)c1=O; NMeV = CN[C@H](C(=O)O)C(C)C; Sar = CNCC(=O)O
Tested on: Saccharomyces cerevisiae INVSc1 yeast cells
Assay: Yeast growth inhibition experiment (Quant-Screen Yeast Assay and OD600)
Assay type: cell-based
Details: INVSc1 in YPD medium, 6 hours at 30° C., different concentrations
Procedure: Serial dilutions of a yeast cell suspension prepared in culture media was placed in each well of a 96-well plate (100 μl/well). Next, 100 μl of reaction buffer containing the CDP-Star® substrate was added to each well. The light emission was then immediately measured in a luminometer (TR717®) (1 sec/well) or NorthStar® (60 sec/plate).
An equivalent aliquot of yeast cell suspension (INVSc1) were inoculated into tubes with 2 ml of minimum medium containing various concentrations of leucine and were grown overnight at 30° C. with shaking. The overnight cultures were then measured by a spectrophotometer at 600 nm to estimate cell density. Next, each of the overnight cultures was transferred (100 μl/well) into a 96-well microplate in triplicate. An equal volume of reaction buffer was added. The plate was placed in TR717™ (a luminometer) to measure total light emission.
100 μof log phase growing yeast cells, INVSc1, were inoculated into tubes with 1 ml of YPD medium containing different concentrations of actinomycin D, a […]. The cultures were grown at 30° C. with shaking for 6 hours. The cultures were measured for OD600 in a spectrophotometer. Next, the cells were transferred (100 μl/well) in triplicate in a 96-well microplate. The assay was performed as in the Growth Stimulation Experiment set forth above.

## Cc1c2oc3c(C)ccc(C(=O)N[C@@H]4C(=O)N[C@H](C(C)C)C(=O)N5CCC[C@H]5C(=O)N(C)CC(=O)N(C)[C@@H](C(C)C)C(=O)O[C@@H]4C)c3nc-2c(C(=O)N[C@@H]2C(=O)N[C@H](C(C)C)C(=O)N3CCC[C@H]3C(=O)N(C)CC(=O)N(C)[C@@H](C(C)C)C(=O)O[C@@H]2C)c(N)c1=O [actinomycin D] (I: T[dV]P[Sar][NMeV] / II: T[dV]P[Sar][NMeV]; ester I:1-I:C, II:1-II:C; linker I:N-II:N via Actinocin(9to1))
  O.D. measurement (OD600): declined with increasing concentrations
  signal intensity (Quant-Screen Yeast Assay, endogenous alkaline phosphatase, light emission): declined with increasing concentrations
